Results as given in US20190076406A1, “METHODS AND COMPOSITIONS FOR TREATING CONDITIONS ASSOCIATED WITH ANGIOGENESIS USING A VASCULAR ADHESION PROTEIN-1 (VAP-1) INHIBITOR” (MASSACHUSETTS EYE & EAR INFIRMARY, priority 2007, published 2019).

What was measured:
[1] = target: T1, human semicarbazide-sensitive amine oxidase (SSAO) (Homo sapiens, UniProt Q16853); test: IC50 against human SSAO; format: biochemical
T1 sequence (Q16853 1-763): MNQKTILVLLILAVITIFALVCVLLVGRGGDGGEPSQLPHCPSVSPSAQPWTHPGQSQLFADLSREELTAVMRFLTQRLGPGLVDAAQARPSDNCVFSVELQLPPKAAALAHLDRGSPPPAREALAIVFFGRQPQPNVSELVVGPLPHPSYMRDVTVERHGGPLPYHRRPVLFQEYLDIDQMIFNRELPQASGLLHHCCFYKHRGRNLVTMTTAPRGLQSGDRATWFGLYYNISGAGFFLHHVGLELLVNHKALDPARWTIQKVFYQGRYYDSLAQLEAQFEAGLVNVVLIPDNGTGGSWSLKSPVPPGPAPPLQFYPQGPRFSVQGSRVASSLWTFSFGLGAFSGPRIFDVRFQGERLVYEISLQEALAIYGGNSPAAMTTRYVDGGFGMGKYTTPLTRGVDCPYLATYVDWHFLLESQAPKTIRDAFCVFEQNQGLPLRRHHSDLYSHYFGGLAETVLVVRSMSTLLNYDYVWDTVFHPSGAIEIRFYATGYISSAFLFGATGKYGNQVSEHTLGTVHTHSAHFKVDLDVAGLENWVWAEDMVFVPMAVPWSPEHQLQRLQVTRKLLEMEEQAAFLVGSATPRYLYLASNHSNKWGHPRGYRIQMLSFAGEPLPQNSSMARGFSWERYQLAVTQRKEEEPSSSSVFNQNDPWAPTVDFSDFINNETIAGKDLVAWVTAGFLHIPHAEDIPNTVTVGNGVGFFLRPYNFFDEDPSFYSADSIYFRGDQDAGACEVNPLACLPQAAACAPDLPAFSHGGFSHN

TNF-α = test: ELISA of TNF-α in RPE-choroid complex after laser injury; format: in vivo, rat; details: 3 days after laser injury; 0.3 mg/kg daily i.p.; mean±SEM
Description: Brown-Norway rats were anesthetized with 0.2-0.3 ml of a 50:50 mixture of 100 mg/ml Ketamine and 20 mg/ml Xylazine. Pupils were dilated with 5.0% Phenylephrine and 0.8% Tropicamide. CNV was induced with a 532 nm laser (Oculight GLx, Iridex, Mountain View, Calif.). Six laser spots (150 mW, 100 μm, 100 msec) were placed in each eye using a slit-lamp delivery system and a cover glass as a contact lens. Production of a bubble at the time of laser confirmed the rupture of the Bruch's membrane.
To block VAP-1, a specific VAP-1 inhibitor, Compound II described above, was used (R-tech Ueno, Ltd., Tokyo, Japan). […]
The RPE-choroid complex was carefully isolated from eyes 3 days after photocoagulation and placed in 300 μl of lysis buffer supplemented with protease inhibitors and sonicated. The lysate was centrifuged at 15,000 rpm for 15 minutes at 4° C. and the levels of TNF-α, monocyte chemotactic protein (MCP)-1, and intercellular adhesion molecule (ICAM)-1 were determined with rat TNF-α (BD bioscience), MCP-1 (BD bioscience) and ICAM-1 (R&D Systems, Minneapolis, Minn.) enzyme-linked immunosorbent assay (ELISA) kits according to the manufacturers' protocols. Total protein concentration was determined using a Bio-Rad Protein Assay Kit (Bio-Rad Laboratories Hercules, Calif.) and dilutions of bovine serum albumin (Bio-Rad Laboratories) as standards.

[2] = target: T2, monoamine oxidase (MAO)-A (Homo sapiens, UniProt P21397); test: IC50 against MAO-A; format: biochemical
T2 sequence (P21397 1-527): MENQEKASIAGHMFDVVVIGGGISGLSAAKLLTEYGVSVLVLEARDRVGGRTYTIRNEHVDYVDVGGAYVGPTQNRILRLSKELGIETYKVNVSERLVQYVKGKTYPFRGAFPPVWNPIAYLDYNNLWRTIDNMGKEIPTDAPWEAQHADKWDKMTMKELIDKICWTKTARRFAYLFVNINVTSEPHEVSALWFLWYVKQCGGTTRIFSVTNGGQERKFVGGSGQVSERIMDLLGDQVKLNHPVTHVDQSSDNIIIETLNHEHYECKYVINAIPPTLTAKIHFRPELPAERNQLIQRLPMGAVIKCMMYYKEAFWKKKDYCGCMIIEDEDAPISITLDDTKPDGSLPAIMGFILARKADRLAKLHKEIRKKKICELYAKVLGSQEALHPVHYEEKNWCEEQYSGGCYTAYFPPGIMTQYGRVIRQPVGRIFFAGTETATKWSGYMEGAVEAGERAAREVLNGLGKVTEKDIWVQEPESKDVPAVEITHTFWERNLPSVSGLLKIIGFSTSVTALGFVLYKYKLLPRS

MAO-B = target: T3, MAO-B (Homo sapiens, UniProt P27338); test: IC50 against MAO-B; format: biochemical
T3 sequence (P27338 1-520): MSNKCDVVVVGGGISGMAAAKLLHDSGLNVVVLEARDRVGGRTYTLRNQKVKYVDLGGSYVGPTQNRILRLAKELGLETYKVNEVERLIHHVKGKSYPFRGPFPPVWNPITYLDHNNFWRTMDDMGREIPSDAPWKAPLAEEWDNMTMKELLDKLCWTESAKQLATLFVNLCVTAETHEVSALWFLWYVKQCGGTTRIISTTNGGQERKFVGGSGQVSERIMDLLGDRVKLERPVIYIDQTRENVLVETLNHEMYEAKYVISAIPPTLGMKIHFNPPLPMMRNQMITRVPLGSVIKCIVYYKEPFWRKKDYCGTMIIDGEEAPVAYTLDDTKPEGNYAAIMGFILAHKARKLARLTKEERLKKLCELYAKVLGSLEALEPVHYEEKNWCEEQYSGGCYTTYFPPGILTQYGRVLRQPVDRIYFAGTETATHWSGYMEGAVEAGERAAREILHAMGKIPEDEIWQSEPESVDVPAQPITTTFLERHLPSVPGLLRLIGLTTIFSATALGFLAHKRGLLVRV

IC50 [1]: 0.007 µM | IC50 [2]: > 10 µM | IC50 (MAO-B): > 10 µM
Compound: CC(=O)Nc1nc(CCc2ccc(NC(=N)NN)cc2)c(Cc2ccc(S(C)(=O)=O)cc2)s1 [Compound II]
TNF-α protein level in RPE-choroid complex (TNF-α): 360 ± 12 pg/mg
